Test results: ChEMBL document CHEMBL1123880, “Beta-adrenoceptor antagonist activity of bivalent ligands. 1. Diamide analogues of practolol” (J Med Chem, 1987)

Tests used:
[1] = species: Rattus norvegicus; assay: Ratio of dissociation constant KD' of rat lung to KD' of rat heart; assay type: tissue-based
[2] = molecular target: Beta-1 adrenergic receptor (Rattus norvegicus) (UniProt P18090); conditions: Heart, Membrane
Description: Apparent dissociation constant towards beta-1 adrenergic receptor in rat heart membranes using (2-6)x10E-9M of [3AH]-DHA in the presence or absence of 10e-5 M (+/-) propranolol.

[3] = molecular target: Beta-2 adrenergic receptor (Rattus norvegicus) (UniProt P10608); conditions: Lung, Membrane
Sequence of Beta-2 adrenergic receptor (Rattus norvegicus) (P10608 whole entry, looked up): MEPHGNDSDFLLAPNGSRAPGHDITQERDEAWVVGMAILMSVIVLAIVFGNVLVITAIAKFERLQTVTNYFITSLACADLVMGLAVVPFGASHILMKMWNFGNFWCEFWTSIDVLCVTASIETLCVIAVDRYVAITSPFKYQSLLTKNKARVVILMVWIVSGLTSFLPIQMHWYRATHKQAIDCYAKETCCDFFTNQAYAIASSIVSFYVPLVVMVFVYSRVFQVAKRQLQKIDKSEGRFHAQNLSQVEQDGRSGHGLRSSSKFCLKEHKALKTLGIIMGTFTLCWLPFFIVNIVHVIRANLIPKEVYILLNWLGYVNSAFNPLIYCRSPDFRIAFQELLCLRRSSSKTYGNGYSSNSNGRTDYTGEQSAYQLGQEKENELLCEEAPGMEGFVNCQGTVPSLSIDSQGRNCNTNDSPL
Description: Apparent dissociation constant towards beta-2 adrenergic receptor in rat lung membranes using (2-6)x10E-9M of [3AH]-DHA in the presence or absence of 10e-5 M (+/-) propranolol.

Sequence of Beta-1 adrenergic receptor (Rattus norvegicus) (P18090 whole entry, looked up): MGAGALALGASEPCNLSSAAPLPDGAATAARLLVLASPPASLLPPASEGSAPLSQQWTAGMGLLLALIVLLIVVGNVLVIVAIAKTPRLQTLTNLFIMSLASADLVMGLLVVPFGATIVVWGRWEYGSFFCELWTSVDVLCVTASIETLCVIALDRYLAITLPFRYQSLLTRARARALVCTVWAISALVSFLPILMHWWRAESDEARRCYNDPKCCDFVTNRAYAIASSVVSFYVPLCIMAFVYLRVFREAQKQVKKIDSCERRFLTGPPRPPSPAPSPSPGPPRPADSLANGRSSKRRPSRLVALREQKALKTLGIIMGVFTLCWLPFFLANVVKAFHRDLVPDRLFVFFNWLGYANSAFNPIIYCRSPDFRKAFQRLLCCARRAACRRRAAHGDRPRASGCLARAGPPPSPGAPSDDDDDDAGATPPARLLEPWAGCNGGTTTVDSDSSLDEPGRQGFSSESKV

| SMILES | Ratio [1] | KD' [2] | KD' [3] |
| --- | --- | --- | --- |
| CC(=O)Nc1ccc(OCC(O)CNC(C)C)cc1 (configuration not stated) | 5.9 | 6.2 µM | 36.5 µM |
| CC(C)NCC(O)COc1ccc(NC(=O)CNCCCCCCCCNCC(=O)Nc2ccc(OCC(O)CNC(C)C)cc2)cc1 (configuration not stated) | 7.8 | 0.5 µM | 3.9 µM |
| CC(C)NCC(O)COc1ccc(NC(=O)CN2CCN(CC(=O)Nc3ccc(OCC(O)CNC(C)C)cc3)CC2)cc1 (configuration not stated) | 13.4 | 2.1 µM | 28.1 µM |
| CC(C)NCC(O)COc1ccc(NC(=O)CNCCCCCCNCC(=O)Nc2ccc(OCC(O)CNC(C)C)cc2)cc1 (configuration not stated) | 5.6 | 5 µM | 28.1 µM |
| CC(C)NCC(O)COc1ccc(NC(=O)CCC(=O)Nc2ccc(OCC(O)CNC(C)C)cc2)cc1 (configuration not stated) | 1.7 | 16.3 µM | 28.1 µM |
| CC(C)NCC(O)COc1ccc(NC(=O)CCCCC(=O)Nc2ccc(OCC(O)CNC(C)C)cc2)cc1 (configuration not stated) | 7.5 | 9 µM | 67.5 µM |
| CC(C)NCC(O)COc1ccc(NC(=O)CCCCCCC(=O)Nc2ccc(OCC(O)CNC(C)C)cc2)cc1 (configuration not stated) | 0.9 | 4.4 µM | 3.9 µM |
| CC(C)NCC(O)COc1ccc(NC(=O)CCCCCCCCC(=O)Nc2ccc(OCC(O)CNC(C)C)cc2)cc1 (configuration not stated) | 14 | 0.1 µM | 1.4 µM |
| CC(C)NCC(O)COc1ccc(NC(=O)CNCCCCNCC(=O)Nc2ccc(OCC(O)CNC(C)C)cc2)cc1 (configuration not stated) | 5.8 | 32.2 µM | 186 µM |
